According to PMC7386434 (Organic letters, 2010):

Columns and labels:
Type in all cases: cell-based
[1] = test system: human embryonic kidney cell line (HEK293); assay: Antiproliferative activity, HEK293 cells; conditions: HEK293, read-out: GI50 HEK293
[2] = test system: human embryonic lung fibroblast (HLF) cells; assay: Antiproliferative activity, HLF cells; conditions: read-out: GI50 HLF
[3] = test system: human lung cancer cell line (A549); assay: Antiproliferative activity, A549 cells; conditions: A549, read-out: GI50 A549
[4] = test system: colorectal carcinoma cell line HCT-116; assay: Antiproliferative activity, HCT-116 cells; conditions: Homo sapiens, HCT-116, read-out: GI50 HCT-116

Work on CCCCCCCC(=O)SCC/C=C/[C@@H]1CC(=O)NCc2nc(cs2)C2=N[C@@](C)(CS2)C(=O)N[C@@H](C(C)C)C(=O)O1 [compound 1, largazole] yielded a GI50 [1] of 1360 nM, a GI50 [2] of 980 nM and a GI50 [3] of 320 nM. For the same molecule, the GI50 [4] was 80 nM.
